IC50 data for 58 compounds are collected here from PubChem BioAssay AID1949 (Southern Research Institute, 2009).

Molecules are shown by their SMILES. Converted amounts (≈) assume the structure as drawn. Results filed as inconclusive are left out. The source made the active and inactive calls. The rule behind the calls is not given here.

The experiment has as its system M. tuberculosis H37Rv growth inhibition. Nature of the experiment: Confirmatory growth inhibition assay against Mycobacterium tuberculosis H37Rv, potency (AID 1949).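 Note: bacteria grown 7 days with compound before Alamar blue readout.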

By IC50 is commonly meant the midpoint of a concentration-inhibition curve. As for `CCCC(=O)N1CCN(c2ccc(NC(=O)c3cc4ccccc4o3)cc2Cl)CC1`, the 50% inhibitory concentration (IC50) was 33.7 µg/mL (≈ 79.1 µM).

`Cc1ccc(NC(CC(=O)c2ccc([N+](=O)[O-])cc2)c2ccccc2)cc1` (stereo not drawn): the IC50 was 49.2 µg/mL (≈ 136 µM). As for `COC(=O)C(CC(=O)c1ccc(Br)cc1)n1ccnc1` (stereo not drawn), the 50% inhibitory concentration (IC50) was 0.7 µg/mL (≈ 2.08 µM). Turning to `COc1cc2c(cc1NC(=O)C(=O)NCCCN1CCOCC1)oc1ccccc12`, the IC50 was > 50 µg/mL (inactive). Consider `Cc1ccc(-c2cc(C(=O)N3CCCc4ccccc43)no2)cc1`, for which the IC50 was 9.33 µg/mL (≈ 29.3 µM).

Consider `Oc1ccccc1-c1n[nH]c(/C=C/c2ccc(Br)cc2)n1`, for which the IC50 is 3.27 µg/mL (≈ 9.56 µM). To `CC(Oc1ccc(C(=O)NCCc2ccccc2)cc1)C(=O)OCc1ccccc1` (stereo not drawn) belongs 2.32 µg/mL (≈ 5.75 µM). For `Oc1ccc(Cl)cc1CNc1nc2ccccc2[nH]1`, the IC50 is 12.1 µg/mL (≈ 44.3 µM). To `CCCCN1C(=O)C(=O)c2cc(Br)ccc21` belongs 9.17 µg/mL (≈ 32.5 µM).

Turning to `Cc1ccc(C(C)C)c(OCCCCn2ccnc2)c1`, the 50% inhibitory concentration (IC50) was 2.22 µg/mL (≈ 8.15 µM). To `CCOC(=O)COc1ccc2c(=O)c(Oc3cccc(OC)c3)coc2c1` belongs 27.2 µg/mL (≈ 73.4 µM); to `CCOC(=O)c1ccc(NC(=S)Nc2ccc(Oc3ccccc3)cc2)cc1`, 0.39 µg/mL (≈ 0.994 µM).

On to `c1ccc(CNCCCOc2cccc3ccccc23)cc1`, for which the IC50 is 4.89 µg/mL (≈ 16.8 µM). Then `C#CCOc1c(Cl)cc(/C=C/[N+](=O)[O-])cc1Cl`, with > 50 µg/mL (inactive); and `COc1ccc(OC)c(NC(=O)Nc2ccc(Cl)c(C(F)(F)F)c2)c1`, with 1.72 µg/mL (≈ 4.59 µM). To `COc1ccc(-c2nnc(SCC(=O)Nc3ccc([N+](=O)[O-])cc3)o2)cc1` belongs 0.64 µg/mL (≈ 1.66 µM). Then `CCOc1cc(CNCc2ccccc2OCc2ccccc2)cc(Cl)c1OCC`, with 1.94 µg/mL (≈ 4.55 µM); and `COc1ccc(C2=CC(c3ccccc3Cl)n3nnnc3N2)cc1OC` (stereo not drawn), with 24.1 µg/mL (≈ 65 µM). In the case of `CC(=O)c1ccc(NCCC(=O)c2ccco2)cc1`, the concentration for half-maximal inhibition (IC50) was 2.8 µg/mL (≈ 10.9 µM).

Take `CCOc1ccc(NCCC(=O)c2cccs2)cc1`: the half-maximal inhibitory concentration (IC50) is 0.86 µg/mL (≈ 3.12 µM).

On to `Cc1nn(-c2nc3ccccc3[nH]2)c(N)c1-c1ccccc1`, for which the IC50 is 0.43 µg/mL (≈ 1.49 µM). For the compound `COc1ccc(C(=O)CCN2CCN(c3ccccc3F)CC2)cc1`, the half-inhibitory concentration (IC50) was 5.64 µg/mL (≈ 16.5 µM). To `Oc1ccccc1-c1n[nH]c(/C=C/c2ccccc2Cl)n1` belongs 6.45 µg/mL (≈ 21.7 µM). Turning to `COC(=O)CSc1nc(-c2ccccc2)c(-c2ccccc2)o1`, the IC50 was 5.58 µg/mL (≈ 17.1 µM). As for `O=C(OCc1c(Cl)cccc1Cl)c1cc2ccccc2oc1=O`, the IC50 is > 50 µg/mL (inactive). To `Cc1cc(C)c(OCCCCNCc2ccccc2)c(Cl)c1` belongs 5.18 µg/mL (≈ 16.3 µM); to `CCOC(=O)c1c(NC(C)=O)sc2c(OCC(O)CN(CC)CC)c(Br)ccc12` (stereo not drawn), 4.61 µg/mL (≈ 9.46 µM).

For the compound `O=C(OCc1ccccc1Cl)c1cc2ccccc2oc1=O`, the IC50 is > 50 µg/mL (inactive). With `O=C(Oc1ccc(Cl)c2cccnc12)c1cccs1`, the IC50 is 0.37 µg/mL (≈ 1.28 µM). Regarding `COc1ccc(Br)cc1C(=O)Nc1ccc(N2CCN(C(=O)C(C)C)CC2)c(Cl)c1`, the 50% inhibitory concentration (IC50) was 5.08 µg/mL (≈ 10.3 µM). To `CC(=O)NC(=S)NNC(=O)c1ccc(C)c(Br)c1` belongs 1.77 µg/mL (≈ 5.36 µM); to `O=C(Nc1ccn(Cc2ccc(Cl)cc2)n1)c1ccc2c(c1)OCO2`, 2.43 µg/mL (≈ 6.83 µM); to `COc1ccc(C2CC(=O)C3=C(C2)NC(C)=C(C(=O)Nc2ccccc2C)C3c2coc3ccc(C)cc3c2=O)cc1OC` (stereo not drawn), 3.7 µg/mL (≈ 6.26 µM). In the case of `CCOC(=O)Cn1nnc(-c2ccc(OCc3ccccc3C)cc2)n1`, the IC50 is under 0.1 µg/mL.

Regarding `CCCCCn1c(NCc2cccs2)nc2ccccc21`, the 50% inhibitory concentration (IC50) was 3.41 µg/mL (≈ 11.4 µM).

Consider `COc1cccc(N2CCN(Cc3nc(N)nc(Nc4ccc(C)c(Cl)c4)n3)CC2)c1`, for which the IC50 was 1.45 µg/mL (≈ 3.3 µM).

As for `Cc1ccc(-c2nn(-c3ccccc3)cc2CNCc2ccccc2)cc1`, the half-inhibitory concentration (IC50) is 1.11 µg/mL (≈ 3.14 µM).

Consider `Cc1ccc(CSCC(=O)Nc2ccccc2)cc1`, for which the IC50 was 2.88 µg/mL (≈ 10.6 µM). In the case of `COc1ccc(NC(=S)Nc2cccc(C(F)(F)F)c2)c([N+](=O)[O-])c1`, the IC50 was 23.3 µg/mL (≈ 62.9 µM). As for `Cc1cccc(Nc2nc(-c3ccccn3)cs2)n1`, the IC50 was under 0.1 µg/mL. Then `Cc1ccc(Cc2ccc(C(=O)Nc3ccc(C)c(C)c3)o2)cc1`, with 0.18 µg/mL (≈ 0.564 µM); and `CC(NC(=S)NC(=O)c1ccc(-c2ccccc2)cc1)c1ccccc1` (stereo not drawn), with 5.85 µg/mL (≈ 16.2 µM); and `CCCCn1c(NC(=S)Nc2ccccc2)nc2ccccc21`, with 4.83 µg/mL (≈ 14.9 µM). Then `O=C(/C=C/c1cccc(C(F)(F)F)c1)Nc1ccc(Cl)cc1`, with 5.09 µg/mL (≈ 15.6 µM); and `C(=NN1CCN(C2c3ccccc3-c3ccccc32)CC1)c1ccncc1`, with 11.2 µg/mL (≈ 31.5 µM). To `COc1cc(SC)ccc1C(=O)NCCOc1ccc(F)cc1` belongs 12.1 µg/mL (≈ 36.2 µM); to `O=C(c1ccccc1)c1ccc2nc(-c3cccc(NC(=O)C4CC4)c3)[nH]c2c1`, 7.78 µg/mL (≈ 20.4 µM).

`COC(=O)c1ccc(N2C(=O)CC(N(CCc3ccccc3)C(=S)Nc3ccccc3)C2=O)cc1` (stereo not drawn): the IC50 was 2.77 µg/mL (≈ 5.68 µM). Then `CC(C)(C)NC(=O)c1cc2cc(Cl)cc(Cl)c2oc1=O`, with 2.54 µg/mL (≈ 8.08 µM). Then `O=C(NC(=S)Nc1cccc(C(F)(F)F)c1)c1cccs1`, with 2.39 µg/mL (≈ 7.23 µM). Then `CC(=O)Oc1cccc2ccc(/C=C/c3ccc(F)cc3)nc12`, with under 0.1 µg/mL; and `COc1ccc(C2CC(=O)Nc3ccc4ccccc4c32)c(I)c1O` (stereo not drawn), with 3.48 µg/mL (≈ 7.82 µM); and `COc1cc(/C=C/[N+](=O)[O-])cc(Cl)c1OCc1ccccc1C#N`, with 17.9 µg/mL (≈ 51.8 µM).

As for `CCC(C)Oc1ccc(C(=O)NC(=S)Nc2ccc3c(c2)COC3=O)cc1` (stereo not drawn), the half-inhibitory concentration (IC50) is 0.55 µg/mL (≈ 1.43 µM).

For `COCc1nc2ccccc2n1CCCOc1ccc(C)cc1`, the half-maximal inhibitory concentration (IC50) was 8.25 µg/mL (≈ 26.6 µM). For the compound `CCc1ccc(Nc2ncnc3ccc(Br)cc23)cc1`, the half-inhibitory concentration (IC50) was 4.16 µg/mL (≈ 12.7 µM). In the case of `O=C(NC(=S)N1CCN(C/C=C/c2ccccc2)CC1)c1ccc(Cl)cc1`, the half-maximal inhibitory concentration (IC50) is 0.39 µg/mL (≈ 0.975 µM). Then `COC(=O)c1ccc(OCC(O)CN2CCN(c3cc(Cl)ccc3C)CC2)cc1` (stereo not drawn), with 5.13 µg/mL (≈ 12.2 µM).
